What was measured:
[1] = tested on: human vascular endothelial cells (HUVECs)
Protocol: Then, 2 mL of trypsin/EDTA was added to the cells, and the cells were detached by incubation at 37° C. in a 5% CO2 environment. After the cell detachment, 5 mL/dish of a culture medium was added, and the cells were transferred to a 15-mL tube and centrifuged at 1200 rpm for 5 minutes in a centrifuge. The supernatant was removed, and then, the number of cells was adjusted to a cell density of 5×10^4 cells/mL using a cell counting kit by the addition of 5 mL of a culture medium. Then, two 6-well plates were used, and the solution with the adjusted HUVEC density was inoculated at 4 mL/well to 3 wells of each plate. Each phytochemical component was added at 4 μL (final concentration: 10 μM)/well to one well of each plate. Also, a phytochemical dissolving solution DMSO was added at 4 μL/well to the remaining wells to prepare a control. […]
Serial dilutions of auraptene were added to the cells, and the cell death of the HUVECs caused by heat stress was observed by crystal violet staining.

[2] = tested on: PPARα; test: PPARα expression in HUVECs, antibody staining, confocal microscopy; assay type: cell-based, human
Protocol: Then, six 35-mm dishes were provided, and 2 mL/dish of the solution with the adjusted HUVEC density was inoculated. Auraptene (10 mM) and tangeretin (10 mM) were each added at 2 μL (final concentration: 10 μM)/dish to two dishes. Also, DMSO was added at 2 μL/dish to the remaining 2 dishes to prepare a control.
The supernatant of the HUVECs cultured in each 35-mm dish was removed, and 2 mL/dish of 4% paraformaldehyde in a phosphate buffer solution was added. The cells were left standing at room temperature for 1 hour.
The solution was removed, and then, the cells were rinsed twice. 2 mL/dish of 0.5% Triton-X00 (Wako Pure Chemical Industries, Ltd.) in PBS was added, and the cells were left standing at room temperature for 5 minutes. The solution was removed, and then, the cells were rinsed twice. 1 mL/dish of an anti-ABCD3 antibody, an anti-PPARα antibody or an anti-PPARγ antibody, each of which was diluted 150-fold with a FACS buffer, was added, and the cells were left standing at room temperature for 2 hours for reaction.
The solution was removed, and then, the cells were rinsed twice. 1 mL/dish of DyLight 649-labeled anti-Rabbit IgG antibody diluted 500-fold with a FACS buffer was added, and the cells were left standing at room temperature for 1 hour in the dark for reaction. The solution was removed, and then, the cells were rinsed twice. Two drops of Diamond Antifade Mountant with DAPI were added to the cells, and a round glass cover was put on the cells, followed by fluorescence photographing under a confocal laser scanning microscope.

[3] = tested on: IL-6; test: IL-6 concentration in supernatant of lymphocytes under heat stress load (ELISA); assay type: cell-based, human
Protocol: 10 mL of human peripheral blood was collected and anti-coagulated with heparin, and 10 mL of PBS(−) was added thereto and stirred. 15 mL of Lymphocyte Separation Medium 1077 (PromoCell GmbH) was layered thereon so as not to mix blood thereinto, followed by blood separation at 1600 rpm for 30 minutes in a centrifuge. The mononuclear cell layer thus separated was collected into a dropper, added to 20 mL of a culture medium, and centrifuged at 1500 rpm for 5 minutes in a centrifuge. The supernatant was removed, and then, 20 mL of a culture medium was added to the cells and stirred. The cells were centrifuged again at 1500 rpm for 5 minutes in a centrifuge. The supernatant was removed, and then, 10 mL of a culture medium was added to the cells and stirred. The whole amount was added to a 10-cm dish and incubated at 37° C. for 1 hour in a 5% CO2 environment. […] The solution with the adjusted lymphocyte density was inoculated at 4 mL/well to 2 wells of each 6-well plate. […] Then, the supernatant was recovered into a 1.5 mL Eppendorf tube and centrifuged at 8000 rpm for 5 minutes in a centrifuge. The supernatant was recovered into a fresh 1.5-mL Eppendorf tube and preserved at −20° C.
Human IL-6 of an ELISA kit was used in IL-6 measurement. 5× Coating Buffer A included in the assay kit was diluted 5-fold with distilled water. Capture Antibody diluted 200-fold with the Coating Buffer was added at 100 μL/well to a 96-well plate, and the plate was left standing overnight at 4° C.
The antibody solution was removed, and each well was washed four times. A very small amount of the reaction solution remaining in the plate was completely removed with Kim Towel. Then, ELISA Assay Diluent (BioLegend, Inc.) diluted 5-fold with distilled water was added at 200 μL/well, and the plate was left standing overnight at 4° C.
The solution was removed, and each well was washed four times. A very small amount of the reaction solution remaining in the plate was completely removed with Kim Towel. IL-6 standard protein was diluted with Assay Diluent to prepare dilution series of the IL-6 standard protein. The dilution series of the IL-6 standard protein and the 40° C. culture supernatant of the lymphocytes were added at 100 μL/well, and the plate was left standing at room temperature for 2 hours. The solution was removed, and each well was washed four times. A very small amount of the reaction solution remaining in the plate was completely removed with Kim Towel. Detection Antibody diluted 200-fold with Assay Diluent was added at 100 μL/well, and the plate was left standing at room temperature for 1 hour. […] The reaction was terminated by the addition of 2 N H2SO4 at 100 μL/well, followed by the absorbance measurement of the reaction solution in a plate reader at 450 nm.

[4] = Table 2 summary, HUVECs 40° C., 37° C. as comparative control

CC(C)=CCC/C(C)=C/COc1ccc2ccc(=O)oc2c1 [auraptene, 7-geranyloxycoumarin]
cell survival by crystal violet staining ([1]; HUVECs cultured at 40° C. for 3 days, vs DMSO): evidently increased cell survival
concentration at which the cell death suppressive effect was confirmed (value in brackets) ([1]; HUVECs, 40° C. for 3 days, crystal violet staining): 600 nM
concentration at which the cell death suppressive effect was confirmed ([1]; HUVECs, 40° C. for 3 days, serial dilutions, crystal violet staining): 0.6 µM
Cytotoxicity (cell death) [1, 4]: Suppressed
expression of PPARα ([2]; HUVECs, 40° C. and 1 day, 10 μM, vs DMSO): increase in the expression of PPARα
PPARα [2, 4]: Increased
Pyrogenic factor ([3]; Table 2 summary, 40° C., inflammatory cytokines, e.g. IL-6 and CCL-2): Decreased
IL-6 sample A ([3]; peripheral blood lymphocytes sample A, 40° C., auraptene 10 μM, non-addition 10 ± 1.1): 5 ± 0.3 pg/mL
IL-6 sample B ([3]; peripheral blood lymphocytes sample B, 40° C., auraptene 10 μM, non-addition 18 ± 0.8): 10 ± 0.1 pg/mL
production of IL-6 ([3]; peripheral blood lymphocytes under heat stress load, vs DMSO, p<0.05): significantly suppressed
